Holding throughout (conditions): 72 h
The test system of test [1] is BT-474. The test is described as follows: drug sensitivity score (DSS), cytotoxicity CellTox Green; higher = more cytotoxic; extreme values may be limits of the assay. As to the method:
(§1)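 Targeted FIMM drug screen of 23 compounds at 5 concentrations over a 10,000-fold range in 384-well plates, 1250 cells/well, 72 h at 37 °C. Read-outs were CellTiter-Glo viability and CellTox Green cytotoxicity, normalised to DMSO and benzethonium chloride controls and summarised as drug sensitivity score (DSS). Cells stably transduced with shScramble or one of two shPPFIA1 constructs (shPPFIA1_1 TRCN0000002969, shPPFIA1_2 TRCN0000342514).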

For test [2], the system named is UT-SCC-24A. Described as above. On the procedure:
as §1

Test [3] deals with MDA-MB-231. The description is as above.
Test [4] concerns MDA-MB-231. The test is described as follows: drug sensitivity score (DSS), cell viability CellTiter-Glo; higher = more sensitive; extreme values may be limits of the assay. On the technique in general: Cellular ATP, detected with luciferase, serves as a proxy for viable cell number.
The subject of test [5] is BT-474. The test is described as above. On the procedure:
as §1

Test [6] concerns UT-SCC-24A. Described as above. As to the method: as §1

As for `C#Cc1cccc(Nc2ncnc3cc(OCCOC)c(OCCOC)cc23)c1` [Erlotinib], the drug sensitivity score in test [1] (shRNA: shPPFIA1_1) came out at 0.8 DSS; in test [1] (shRNA: shPPFIA1_2), 1.1 DSS; in test [1] (shRNA: shScramble), 1.2 DSS; in test [2] (shRNA: shPPFIA1_1), 17.8 DSS; in test [2] (shRNA: shPPFIA1_2), 11.4 DSS; in test [2] (shRNA: shScramble) it was 8.3 DSS. The drug sensitivity score in test [3] (shRNA: shPPFIA1_1) amounted to 0 DSS; in test [3] (shRNA: shScramble), 0 DSS; in test [4] (shRNA: shPPFIA1_1), 2.8 DSS; in test [4] (shRNA: shScramble) it was 4 DSS; in test [5] (shRNA: shPPFIA1_1) it was 2.5 DSS; in test [5] (shRNA: shPPFIA1_2) it was 2.9 DSS. The drug sensitivity score is 3.9 DSS in test [5] (shRNA: shScramble), 20.8 DSS in test [6] (shRNA: shPPFIA1_1), 14 DSS in test [6] (shRNA: shPPFIA1_2) and 11.9 DSS in test [6] (shRNA: shScramble).

Take `CO[C@H]1C[C@@H]2CC[C@@H](C)[C@@](O)(O2)C(=O)C(=O)N2CCCC[C@H]2C(=O)O[C@H]([C@H](C)C[C@@H]2CC[C@@H](OCCO)[C@H](OC)C2)CC(=O)[C@H](C)/C=C(\C)[C@@H](O)[C@@H](OC)C(=O)[C@H](C)C[C@H](C)/C=C/C=C/C=C/1C` [Everolimus]: the drug sensitivity score in test [1] (shRNA: shPPFIA1_1), in test [1] (shRNA: shPPFIA1_2), in test [1] (shRNA: shScramble), in test [2] (shRNA: shPPFIA1_1), in test [2] (shRNA: shPPFIA1_2) and in test [2] (shRNA: shScramble) was 0 DSS throughout. Moreover, the drug sensitivity score was 0 DSS in test [3] (shRNA: shPPFIA1_1); 0 DSS in test [3] (shRNA: shScramble); 0 DSS in test [4] (shRNA: shPPFIA1_1); 6.1 DSS in test [4] (shRNA: shScramble); 5.2 DSS in test [5] (shRNA: shPPFIA1_1); 3.6 DSS in test [5] (shRNA: shPPFIA1_2). Also, the drug sensitivity score in test [5] (shRNA: shScramble) turned out to be 5.2 DSS; in test [6] (shRNA: shPPFIA1_1), 1.3 DSS; in test [6] (shRNA: shPPFIA1_2), 2.5 DSS; in test [6] (shRNA: shScramble), 2.9 DSS.

On to `O=C(NOCCO)c1ccc2cncn2c1Nc1ccc(I)cc1F` [GDC-0623], for which the drug sensitivity score in test [1] (shRNA: shPPFIA1_1) is 0 DSS; in test [1] (shRNA: shPPFIA1_2), 0 DSS; in test [1] (shRNA: shScramble) it was 0 DSS; in test [2] (shRNA: shPPFIA1_1), 1.8 DSS; in test [2] (shRNA: shPPFIA1_2), 0 DSS; in test [2] (shRNA: shScramble), 0.8 DSS. Besides, the drug sensitivity score in test [3] (shRNA: shPPFIA1_1) was 5.2 DSS; in test [3] (shRNA: shScramble) it was 11.2 DSS; in test [4] (shRNA: shPPFIA1_1), 3.7 DSS; in test [4] (shRNA: shScramble), 18.1 DSS; in test [5] (shRNA: shPPFIA1_1), 0 DSS; in test [5] (shRNA: shPPFIA1_2), 0 DSS. The drug sensitivity score came to 0 DSS in test [5] (shRNA: shScramble), 2 DSS in test [6] (shRNA: shPPFIA1_1), 0 DSS in test [6] (shRNA: shPPFIA1_2) and 1.8 DSS in test [6] (shRNA: shScramble).

For the compound `COc1cc2ncnc(Nc3ccc(F)c(Cl)c3)c2cc1OCCCN1CCOCC1` [Gefitinib], the drug sensitivity score worked out at 4.1 DSS in test [1] (shRNA: shPPFIA1_1); 5.6 DSS in test [1] (shRNA: shPPFIA1_2); 4.8 DSS in test [1] (shRNA: shScramble); 19.4 DSS in test [2] (shRNA: shPPFIA1_1); 17.3 DSS in test [2] (shRNA: shPPFIA1_2); 8.3 DSS in test [2] (shRNA: shScramble). In addition, the drug sensitivity score in test [3] (shRNA: shPPFIA1_1) is 0 DSS; in test [3] (shRNA: shScramble), 0 DSS; in test [4] (shRNA: shPPFIA1_1) it was 2.3 DSS; in test [4] (shRNA: shScramble) it was 2.3 DSS; in test [5] (shRNA: shPPFIA1_1) it was 7.8 DSS; in test [5] (shRNA: shPPFIA1_2) it was 9.1 DSS. The drug sensitivity score in test [5] (shRNA: shScramble) stood at 10.8 DSS; in test [6] (shRNA: shPPFIA1_1) it was 19.6 DSS; in test [6] (shRNA: shPPFIA1_2), 18.4 DSS; in test [6] (shRNA: shScramble), 12.1 DSS.

As to `COc1ccc(-c2ccc3ncc4c(c3c2)n(-c2ccc(N3CCNCC3)c(C(F)(F)F)c2)c(=O)n4C)cn1` [NVP-BGT226], the drug sensitivity score in test [1] (shRNA: shPPFIA1_1) is 2.8 DSS; in test [1] (shRNA: shPPFIA1_2) it was 6.2 DSS; in test [1] (shRNA: shScramble), 4.8 DSS; in test [2] (shRNA: shPPFIA1_1), 7.9 DSS; in test [2] (shRNA: shPPFIA1_2), 6.5 DSS; in test [2] (shRNA: shScramble), 7.8 DSS. The drug sensitivity score in test [3] (shRNA: shPPFIA1_1) is 0 DSS; in test [3] (shRNA: shScramble) it was 6.4 DSS; in test [4] (shRNA: shPPFIA1_1) it was 0.8 DSS; in test [4] (shRNA: shScramble), 17.3 DSS; in test [5] (shRNA: shPPFIA1_1), 9.6 DSS; in test [5] (shRNA: shPPFIA1_2) it was 11.3 DSS. Moreover, the drug sensitivity score in test [5] (shRNA: shScramble) came to 14.2 DSS; in test [6] (shRNA: shPPFIA1_1), 19.4 DSS; in test [6] (shRNA: shPPFIA1_2), 20.4 DSS; in test [6] (shRNA: shScramble), 20.7 DSS.

The record behind these values is the supplement of paper PMC10920090.
